According to article PMC5234269 (Chemical communications (Cambridge, England), 2015):
“And” between values parts separate entries of the source, which are not always exact repeats. Equal entries are not always repeated. Where two headings read alike, the source gives them in different places.

What was measured:
[1] = tested on: Tyr(7.43) to Cys mutant receptor; conditions: mutant vs wild type; cited from earlier work
D3R = D3R (Homo sapiens, UniProt P35462); experiment: Radioligand binding to D3R with and without Na+
D2R = D2R (Homo sapiens, UniProt P14416); type: binding
D2R, sequence (P14416 whole entry): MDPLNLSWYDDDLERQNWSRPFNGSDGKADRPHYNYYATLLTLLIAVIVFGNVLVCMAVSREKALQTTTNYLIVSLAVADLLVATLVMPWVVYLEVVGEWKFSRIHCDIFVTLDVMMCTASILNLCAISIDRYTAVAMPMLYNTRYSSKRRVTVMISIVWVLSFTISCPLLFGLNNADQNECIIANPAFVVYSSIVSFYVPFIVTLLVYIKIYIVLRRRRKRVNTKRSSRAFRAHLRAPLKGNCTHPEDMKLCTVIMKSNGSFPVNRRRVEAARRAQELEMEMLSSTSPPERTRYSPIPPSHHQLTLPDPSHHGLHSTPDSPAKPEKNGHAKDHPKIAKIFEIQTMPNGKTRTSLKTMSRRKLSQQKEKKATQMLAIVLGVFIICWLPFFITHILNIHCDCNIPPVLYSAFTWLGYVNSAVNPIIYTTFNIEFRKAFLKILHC

D3R, sequence (P35462 whole entry): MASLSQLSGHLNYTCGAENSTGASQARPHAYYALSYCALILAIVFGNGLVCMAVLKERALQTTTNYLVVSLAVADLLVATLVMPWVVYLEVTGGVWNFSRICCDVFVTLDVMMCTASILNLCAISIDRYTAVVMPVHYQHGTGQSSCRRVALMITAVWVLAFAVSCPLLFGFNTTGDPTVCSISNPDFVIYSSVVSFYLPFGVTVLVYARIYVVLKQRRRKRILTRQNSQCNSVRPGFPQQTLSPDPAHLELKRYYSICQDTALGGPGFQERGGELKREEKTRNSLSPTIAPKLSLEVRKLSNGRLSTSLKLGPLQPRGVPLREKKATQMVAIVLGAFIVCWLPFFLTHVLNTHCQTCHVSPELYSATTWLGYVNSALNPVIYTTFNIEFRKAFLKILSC

SMILES: CN1CN(c2ccccc2)C2(CCN(CCCC(=O)c3ccc(F)cc3)CC2)C1=O [methylspiperone]
- decrease of binding by mutation of Tyr(7.43) to Cys [1]: 3 fold

SMILES: CCN1CCCC1CNC(=O)c1cc(S(N)(=O)=O)ccc1OC (stereo not drawn) [sulpiride]
- effect of Na+ on binding to the D3R (D3R; result in words, Fig. S2): increased
- decrease of binding by mutation of Tyr(7.43) to Cys [1]: 185 fold
- increase of affinity for the D2R in the presence of Na+ (D2R; +Na+ vs -Na+): ~ 23 fold

SMILES: CN(C)CCOC1=Cc2ccccc2Sc2ccc(Cl)cc21 [zotepine]
- decrease of affinity for the D2R in the presence of Na+ (D2R; +Na+ vs -Na+): ~ 7 fold

SMILES: O=C(CCCN1CCC2(CC1)C(=O)NCN2c1ccccc1)c1ccc(F)cc1 [spiperone]
- effect of presence or absence of Na+ on affinity for the D2R (D2R): does not affect

SMILES: CCc1cc(Cl)c(OC)c(C(=O)NC[C@@H]2CCCN2CC)c1O [eticlopride]
- effect of Na+ on binding to the D3R (D3R): increased
- increase of affinity for the D2R in the presence of Na+ (D2R): ~ 3 fold
- Ki (D2R; Ki): 0.67 nM and 0.27 nM
